# Like-named read-outs stand apart in the source and are kept apart here.
# Tests used:
# [1] = Solubility in water; assay type: physicochemical
# Excerpt: 2-Butenedial is present in the composition, at use concentration, in amounts of between 0.5% and 1.0% by weight. Higher concentrations, e.g., up to 2%, or lower concentrations, e.g., above 0.25%, could be used if desired. The preferred concentration of 2-butenedial at use dilution is about 0.5% by weight. Higher concentrations of 2-butenedial may be used for shipping the composition to the point of use and the composition could then be diluted with water to the desired use concentration. The limit on the amount of 2-butenedial used in the concentrate composition is a function of the solubility of 2-butenedial in water, which is about 20% w/w. To achieve compositions with greater than 20% w/w, a water miscible co-solvent can be used. Typically, suitable co-solvents include low molecular weight alcohols and glycols. The optimum parameters for any given quantity to be sterilized or disinfected can be determined by routine experimentation using varying concentrations, treatment times, and temperatures as described herein.
# [2] = tested on: spores of C. sporogenes; assay: AOAC Sporicidal Test, C. sporogenes spores; assay type: cell-based; details: pH 4, 20° C., 24 hours
# Protocol: (§1) In this example, a series of aqueous solutions containing from 2 to 0.5% of 2-butenedial, buffered at pH 4 with monopotassium hydrogen phosphate and acetic acid, were tested according to methods described in the AOAC Sporicidal Test to determine their effectiveness against spores of B. subtilis and C. sporogenes at 20° C. in 24 hours.
# [3] = tested on: spores of B. subtilis; assay: AOAC Sporicidal Test, B. subtilis spores; assay type: cell-based; details: pH 4, 20° C., 24 hours
# Protocol: as §1
# [4] = Storage stability of solutions at 0-5° C., pH 4; assay type: physicochemical; details: pH 4, 0-5° C.
# Protocol: Solutions containing about 2.7% of 2-butenedial buffered to pH 4 were stored at 0-5° C. for about 3 months to determine the effect of storage temperature on the stability of the solutions.
# [5] = tested on: Mycobacterium bovis BCG; assay type: cell-based; details: for time within which biocidal: 0.5% 2-butenedial
# [6] = Use life stability at 25° C. for 14 days, effect of pH; assay type: physicochemical
# Protocol: Solutions containing 2% of 2-butenedial buffered to pH 2.5, 3.5 and 4.5 were aged at 25° C. for 14 days to determine the effect of pH on use life stability.
# [7] = Storage stability of solutions at 25° C., effect of pH; assay type: physicochemical
# Protocol: Solutions containing about 3% of 2-butenedial buffered to pH 3, 5 and 7 were stored at 25° C. for about 3 months to determine the effect of pH on the stability of the solutions.
# [8] = 0.5% (w/w) butenedial, penicylinders
# [9] = 1% (w/w) butenedial, penicylinders
# [10] = 2% (w/w) butenedial, penicylinders
compound,measurement,setting,value
"O=CC=CC=O [2-butenedial, 2-Butenedial]",solubility in water,[1],about 20 % w/w
same,Total No. of Positives(Failures/Total No. of Tests),[2]; [8],1/30
same,Total No. of Positives(Failures/Total No. of Tests),"[2]; 0.5% (w/w) butenedial, sutures",0/30
same,Total No. of Positives(Failures/Total No. of Tests),[2]; [9],0/30
same,Total No. of Positives(Failures/Total No. of Tests),"[2]; 1% (w/w) butenedial, sutures",0/30
same,Total No. of Positives(Failures/Total No. of Tests),[2]; [10],0/30
same,Total No. of Positives(Failures/Total No. of Tests),"[2]; 2% (w/w) butenedial, sutures",0/30
same,minimum effective concentration against spores,[2],about 0.5%
same,Total No. of Positives(Failures/Total No. of Tests),[3]; [8],0/30
same,Total No. of Positives(Failures/Total No. of Tests),"[3]; 0.5% (w/w) butenedial, sutures",0/30
same,Total No. of Positives(Failures/Total No. of Tests),[3]; [9],0/30
same,Total No. of Positives(Failures/Total No. of Tests),"[3]; 1% (w/w) butenedial, sutures",0/30
same,Total No. of Positives(Failures/Total No. of Tests),[3]; [10],0/30
same,Total No. of Positives(Failures/Total No. of Tests),"[3]; 2% (w/w) butenedial, sutures",0/30
same,minimum effective concentration against spores,[3],about 0.5%
same,% Butenedial,[4]; storage time 0 mo,2.72%
same,% Butenedial,[4]; storage time 1 mo,2.67%
same,% Butenedial,[4]; storage time 2 mo,2.68%
same,% Butenedial,[4]; storage time 3 mo,2.54%
same,time within which biocidal,"[5]; pH 4, 20° C.",≤ 30 min
same,time within which biocidal,"[5]; pH 5.5, 20° C.",≤ 30 min
same,Percent Reduction of Organisms,"[5]; 0.5% (w/w) butenedial, pH 4, 20° C., 5 min",>99.78%
same,Percent Reduction of Organisms,"[5]; 0.5% (w/w) butenedial, pH 4, 20° C., 15 min",>99.996%
same,Percent Reduction of Organisms,"[5]; 0.5% (w/w) butenedial, pH 4, 20° C., 30 min",>100%
same,Percent Reduction of Organisms,"[5]; 0.5% (w/w) butenedial, pH 4, 20° C., 60 min",>100%
same,Percent Reduction of Organisms,"[5]; 0.5% (w/w) butenedial, pH 5.5, 20° C., 5 min",83.5%
same,Percent Reduction of Organisms,"[5]; 0.5% (w/w) butenedial, pH 5.5, 20° C., 15 min",>99.996%
same,Percent Reduction of Organisms,"[5]; 0.5% (w/w) butenedial, pH 5.5, 20° C., 30 min",>100%
same,Percent Reduction of Organisms,"[5]; 0.5% (w/w) butenedial, pH 5.5, 20° C., 60 min",>100%
same,Percent Reduction of Organisms,"[5]; 1% (w/w) butenedial, pH 4, 20° C., 5 min",>99.97%
same,Percent Reduction of Organisms,"[5]; 1% (w/w) butenedial, pH 4, 20° C., 15 min",>99.997%
same,Percent Reduction of Organisms,"[5]; 1% (w/w) butenedial, pH 4, 20° C., 30 min",>100%
same,Percent Reduction of Organisms,"[5]; 1% (w/w) butenedial, pH 4, 20° C., 60 min",>100%
same,Percent Reduction of Organisms,"[5]; 1% (w/w) butenedial, pH 5.5, 20° C., 5 min",94.5%
same,Percent Reduction of Organisms,"[5]; 1% (w/w) butenedial, pH 5.5, 20° C., 15 min",>99.997%
same,Percent Reduction of Organisms,"[5]; 1% (w/w) butenedial, pH 5.5, 20° C., 30 min",>100%
same,Percent Reduction of Organisms,"[5]; 1% (w/w) butenedial, pH 5.5, 20° C., 60 min",>100%
same,Percent Reduction of Organisms,"[5]; 2% (w/w) butenedial, pH 4, 20° C., 5 min",>99.98%
same,Percent Reduction of Organisms,"[5]; 2% (w/w) butenedial, pH 4, 20° C., 15 min",>99.998%
same,Percent Reduction of Organisms,"[5]; 2% (w/w) butenedial, pH 4, 20° C., 30 min",>100%
same,Percent Reduction of Organisms,"[5]; 2% (w/w) butenedial, pH 4, 20° C., 60 min",>100%
same,Percent Reduction of Organisms,"[5]; 2% (w/w) butenedial, pH 5.5, 20° C., 5 min",95%
same,Percent Reduction of Organisms,"[5]; 2% (w/w) butenedial, pH 5.5, 20° C., 15 min",99.95%
same,Percent Reduction of Organisms,"[5]; 2% (w/w) butenedial, pH 5.5, 20° C., 30 min",>100%
same,Percent Reduction of Organisms,"[5]; 2% (w/w) butenedial, pH 5.5, 20° C., 60 min",>100%
same,minimum effective concentration,[5]; based on results on spores and tubercular bacteria,0.5%
same,acceptable use life stability,"[6]; 25° C., pH 2.5, 3.5 and 4.5, minimum effective concentration 0.5%",at least 14 days
same,Percent (%) Butenedial,"[6]; pH 2.5, 25° C., use life 0 days",2.0%
same,Percent (%) Butenedial,"[6]; pH 2.5, 25° C., use life 2 days",1.94%
same,Percent (%) Butenedial,"[6]; pH 2.5, 25° C., use life 4 days",1.84%
same,Percent (%) Butenedial,"[6]; pH 2.5, 25° C., use life 7 days",1.78%
same,Percent (%) Butenedial,"[6]; pH 2.5, 25° C., use life 10 days",1.7%
same,Percent (%) Butenedial,"[6]; pH 2.5, 25° C., use life 14 days",1.6%
same,Percent (%) Butenedial,"[6]; pH 3.5, 25° C., use life 0 days",2.0%
same,Percent (%) Butenedial,"[6]; pH 3.5, 25° C., use life 2 days",1.92%
same,Percent (%) Butenedial,"[6]; pH 3.5, 25° C., use life 4 days",1.76%
same,Percent (%) Butenedial,"[6]; pH 3.5, 25° C., use life 7 days",1.6%
same,Percent (%) Butenedial,"[6]; pH 3.5, 25° C., use life 10 days",1.5%
same,Percent (%) Butenedial,"[6]; pH 3.5, 25° C., use life 14 days",1.4%
same,Percent (%) Butenedial,"[6]; pH 4.5, 25° C., use life 0 days",2.0%
same,Percent (%) Butenedial,"[6]; pH 4.5, 25° C., use life 2 days",1.73%
same,Percent (%) Butenedial,"[6]; pH 4.5, 25° C., use life 4 days",1.5%
same,Percent (%) Butenedial,"[6]; pH 4.5, 25° C., use life 7 days",1.32%
same,Percent (%) Butenedial,"[6]; pH 4.5, 25° C., use life 10 days",1.0%
same,Percent (%) Butenedial,"[6]; pH 4.5, 25° C., use life 14 days",0.8%
same,Percent (%) Butenedial,"[7]; pH 3, 25° C., storage time 0 months",2.94%
same,Percent (%) Butenedial,"[7]; pH 3, 25° C., storage time 1 month",2.4%
same,Percent (%) Butenedial,"[7]; pH 3, 25° C., storage time 2 months",1.77%
same,Percent (%) Butenedial,"[7]; pH 3, 25° C., storage time 3 months",0.95%
same,Percent (%) Butenedial,"[7]; pH 5, 25° C., storage time 0 months",2.94%
same,Percent (%) Butenedial,"[7]; pH 5, 25° C., storage time 1 month",1.06%
same,Percent (%) Butenedial,"[7]; pH 5, 25° C., storage time 2 months",0.55%
same,Percent (%) Butenedial,"[7]; pH 5, 25° C., storage time 3 months",0.13%
same,Percent (%) Butenedial,"[7]; pH 7, 25° C., storage time 0 months",2.94%
same,Percent (%) Butenedial,"[7]; pH 7, 25° C., storage time 1 month",0.12%
same,Percent (%) Butenedial,"[7]; pH 7, 25° C., storage time 2 months",0.09%
same,Percent (%) Butenedial,"[7]; pH 7, 25° C., storage time 3 months",0.06%
same,acceptable storage stability,"[7]; stored as one component at pH 3, 25° C.",about 3 months
